In brackets after ≈: the same amount, converted by molar mass. Like-named read-outs stand apart in the source and are kept apart here.
Legend:
[1] = tested on: Staphylococcus aureus subsp. aureus (MRSA) CCM 4750 (ATCC 43300); assay: Antibacterial microdilution broth (EUCAST); type: cell-based; settings: 24h incubation; for MIC: Staphylococcus aureus, read-out: MIC MRSA
[2] = tested on: Aspergillus flavus CCM 8363; assay: Antifungal microdilution broth (EUCAST); settings: for MIC: Aspergillus flavus, CCM8363, 24 h, read-out: MIC AFla
[3] = tested on: Pseudomonas aeruginosa CCM 3955 (ATCC 27853); assay: Antibacterial microdilution broth (EUCAST); type: cell-based; settings: 72h incubation; for MIC: Pseudomonas aeruginosa, read-out: MIC PA
[4] = tested on: Candida tropicalis CCM 8264 (ATCC 750); assay: Antifungal microdilution broth (EUCAST); settings: for MIC: Candida tropicalis, 24 h, read-out: MIC CT
[5] = tested on: Acinetobacter baumannii DSM 30007 (ATCC 19606); assay: Antibacterial microdilution broth (EUCAST); type: cell-based; settings: 24h incubation; for MIC: Acinetobacter baumannii, read-out: MIC AB
[6] = tested on: M. kansasii DSM 44162 (ATCC 12478); assay: Antimycobacterial MIC, microdilution broth / resazurin; type: cell-based; settings: Mycobacterium kansasii, read-out: MIC M. kansasii
[7] = tested on: M. avium DSM 44156 (ATCC 25291); assay: as above; type: cell-based, Mycobacterium avium; settings: Mycobacterium avium; resazurin after 96 h; read-out: MIC M. avium
[8] = tested on: Candida albicans CCM 8320 (ATCC 24433); assay: Antifungal microdilution broth (EUCAST); settings: for MIC: Candida albicans, 24 h, read-out: MIC CA
[9] = tested on: Lichtheimia corymbifera CCM 8077; assay: Antifungal microdilution broth (EUCAST); settings: for MIC: Lichtheimia corymbifera, CCM8077, 24 h, read-out: MIC LC
HepG2 cells = assay: HepG2 cytotoxicity screening (CellTiter 96); type: cell-based, human; settings: Homo sapiens, HepG2, 24 h, 24 h incubation, CellTiter 96; * above highest tested concentration; ** limited by insolubility in medium
[10] = tested on: Escherichia coli CCM 3954 (ATCC 25922); assay: Antibacterial microdilution broth (EUCAST); type: cell-based; settings: 24h incubation; for MIC: Escherichia coli, read-out: MIC EC
[11] = tested on: Candida parapsilosis CCM 8260 (ATCC 22019); assay: Antifungal microdilution broth (EUCAST); settings: for MIC: Lodderomyces parapsilosis, 24 h, read-out: MIC CP
[12] = tested on: Trichophyton interdigitale CCM 8377 (ATCC 9533); assay: Antifungal microdilution broth (EUCAST); settings: for MIC: Trichophyton interdigitale, 72 h, read-out: MIC TI
[13] = tested on: Staphylococcus epidermidis CCM 4418 (ATCC 12228); assay: Antibacterial microdilution broth (EUCAST); type: cell-based; settings: 24h incubation; for MIC: Staphylococcus epidermidis, read-out: MIC SE
[14] = RP-UHPLC lipophilicity parameter log k’w; type: physicochemical; settings: for log k’w: RP-UHPLC, acetonitrile/water, log k extrapolated to 0% acetonitrile; for logkw: experimental lipophilicity parameter
Excerpt: Lipophilicity and water solubility of the drug candidates are important parameters as they are often directly related to their ADME properties in the organism. Lipophilicity is usually expressed as the logarithm of the partition coefficient in n-octanol/water (log P). Due to its laborious determination, especially in the HTS screening, other experimental methods such as RP-HPLC log k’w or purely computational approaches such as Clog P were proposed and have been established as reasonable estimators of true lipophilicity. To investigate the changes in lipophilicity upon introduction of oxazole in the title compounds, we determined the log k’w of all derivatives and compared respective values among the pairs.
The log k of the synthesized compounds was measured using the same instrument (single measurement per concentration), software, and column as was used in the purity evaluation. Working solutions were diluted as described above for purity determination. The log k parameter was calculated after the UHPLC measurements using isocratic mode with mobile phase acetonitrile (B)/water (A) in a set of concentrations of 40, 45, 50% and 20, 30, 40% B for subtype I and subtype II, respectively.

[15] = tested on: Enterococcus faecalis CCM 4224 (ATCC 29212); assay: Antibacterial microdilution broth (EUCAST); type: cell-based; settings: 24h incubation; for MIC: Enterococcus faecalis, read-out: MIC EF
[16] = tested on: Staphylococcus aureus subsp. aureus CCM 4223 (ATCC 29213); assay: Antibacterial microdilution broth (EUCAST); type: cell-based; settings: 24h incubation; for MIC: Staphylococcus aureus, read-out: MIC SA
[17] = tested on: Candida krusei CCM 8271 (ATCC 6258); assay: Antifungal microdilution broth (EUCAST); settings: for MIC: Pichia kudriavzevii, 24 h, read-out: MIC CK
[18] = tested on: M. smegmatis DSM 43465 (ATCC 607); assay: Antimycobacterial MIC, microdilution broth / resazurin; type: cell-based; settings: Mycolicibacterium smegmatis; resazurin after 48 h; read-out: MIC M. smegmatis
[19] = tested on: Mycobacterium tuberculosis H37Ra ITM-M006710 (ATCC 9431); assay: Antimycobacterial MIC, microdilution broth / Alamar Blue (resazurin); type: cell-based; settings: Mycobacterium tuberculosis, 120 h, Middlebrook 7H9, resazurin after 120 h; read-out: Mtb H37Ra MIC
[20] = tested on: M. aurum DSM 43999 (ATCC 23366); assay: Antimycobacterial MIC, microdilution broth / resazurin; type: cell-based; settings: Mycolicibacterium aurum, read-out: MIC M. aurum
[21] = tested on: Aspergillus fumigatus ATCC 204305; assay: Antifungal microdilution broth (EUCAST); settings: for MIC: Aspergillus fumigatus, ATCC204305, 24 h, read-out: MIC AF

Structure (SMILES) | MIC [7] [µg/mL] | log k’w [14] | logkw [14] | MIC [18] [µg/mL] | MIC [19] [µg/mL] | MIC ([20]; resazurin after 72 h) [µg/mL] | melting point [°C] | MIC [1] [µM] | MIC [2] [µM] | MIC [3] [µM] | MIC [4] [µM] | MIC [5] [µM] | MIC ([6]; resazurin after 96 h) [µg/mL] | MIC [8] [µM] | MIC [9] [µM] | MIC [10] [µM] | MIC [11] [µM] | MIC [12] [µM] | MIC [13] [µM] | MIC [15] [µM] | further results
O=C(Nc1nc(-c2ccccc2)co1)c1cnc(Cl)cn1 [Compound 18b] | 62.5 (≈ 208 µM) | 2.073 | 2.073 | ≥ 500 | 15.6 (≈ 52 µM) | 125 (≈ 416 µM) | 203 to 207 | – | – | – | – | – | – | – | – | – | – | – | – | – | MIC MRSA [1]: insoluble; MIC AFla ([2]; 24h incubation): insoluble; MIC PA [3]: insoluble; MIC CT ([4]; 24h incubation): insoluble; MIC AB [5]: insoluble; MIC ([6]; 96 h): 15.6 µg/mL (≈ 52 µM); MIC CA ([8]; 24h incubation): insoluble; MIC LC ([9]; 24h incubation): insoluble; IC50 (HepG2 cells): > 100 µM; MIC EC [10]: insoluble; MIC CP ([11]; 24h incubation): insoluble; MIC TI ([12]; 72h incubation): insoluble; MIC SE [13]: insoluble; MIC EF [15]: insoluble; MIC SA [16]: insoluble; MIC CK ([17]; 24h incubation): insoluble; MIC AF ([21]; 24h incubation): insoluble
O=C(Nc1nccs1)c1ccncc1 [Compound 3a] | ≥ 500 | 1.306 | 1.306 | ≥ 500 | 250 (≈ 1220 µM) | ≥ 500 | 194 to 195 | > 500 | > 500 | > 500 | > 500 | > 500 | 250 (≈ 1220 µM) | > 500 | > 500 | > 500 | > 500 | > 500 | > 500 | > 500 | IC50 (HepG2 cells): > 1000 µM; MIC [16]: > 500 µM; MIC [17]: > 500 µM; MIC [21]: > 500 µM
O=C(Nc1nc(-c2ccccc2)co1)c1ccccc1 [Compound 20b] | 31.2 (≈ 118 µM) | 2.090 | – | 125 (≈ 473 µM) | 62.5 (≈ 236 µM) | 31.2 (≈ 118 µM) | 143 to 145 | 500 (≈ 132 µg/mL) | 500 (≈ 132 µg/mL) | > 500 | 500 (≈ 132 µg/mL) | 500 (≈ 132 µg/mL) | 31.2 (≈ 118 µM) | 500 (≈ 132 µg/mL) | 500 (≈ 132 µg/mL) | > 500 | 500 (≈ 132 µg/mL) | 250 (≈ 66.1 µg/mL) | 250 (≈ 66.1 µg/mL) | > 500 | IC50 (HepG2 cells): 330 µM; MIC [16]: 250 µM (≈ 66.1 µg/mL); MIC [17]: 500 µM (≈ 132 µg/mL); MIC [21]: 500 µM (≈ 132 µg/mL)
O=C(Nc1nccs1)c1cnc(Cl)cn1 [Compound 9a] | 15.6 (≈ 64.9 µM) | 1.941 | 1.941 | ≥ 500 | 31.2 (≈ 130 µM) | ≥ 500 | 197 to 200 | > 500 | 500 (≈ 120 µg/mL) | > 500 | > 500 | > 500 | < 3.91 | > 500 | > 500 | > 500 | > 500 | > 500 | > 500 | > 500 | MIC [16]: > 500 µM; MIC [17]: > 500 µM; MIC [21]: 500 µM (≈ 120 µg/mL)
O=C(Nc1nc(-c2ccccc2)cs1)c1cnc2ccccc2n1 [Compound 19a] | ≥ 500 | 3.583 | 3.583 | ≥ 500 | ≥ 500 | ≥ 500 | 217 to 219 | > 250 | > 125 | > 250 | > 125 | > 250 | ≥ 500 | > 125 | > 125 | > 250 | > 125 | > 125 | > 250 | > 250 | MIC [16]: > 250 µM; MIC [17]: > 125 µM; MIC [21]: > 125 µM
O=C(Nc1ncco1)c1cnccn1 [Compound 8b] | 62.5 (≈ 329 µM) | 0.154 | 0.154 | ≥ 500 | 31.2 (≈ 164 µM) | – | 160 to 164 | > 500 | > 500 | > 500 | > 500 | > 500 | 15.6 (≈ 82.2 µM) | > 500 | 500 (≈ 95.1 µg/mL) | > 500 | > 500 | 500 (≈ 95.1 µg/mL) | > 500 | > 500 | MIC [16]: > 500 µM; MIC [17]: > 500 µM; MIC ([20]; 72 h): 31.2 µg/mL (≈ 164 µM); MIC [21]: > 500 µM

Reference: PMC9143880, “Improving Antimicrobial Activity and Physico-Chemical Properties by Isosteric Replacement of 2-Aminothiazole with 2-Aminooxazole” (Pharmaceuticals, 2022)
